Laboratory results from patent US7358235B2, “Analogs of nitrobenzylthioinosine” (Gruenenthal GmbH, priority 2002, dated 2008).
“Also recorded” adds a separate entry of the source. Read-outs that look alike come from different tables or passages of the source. Marks after values point to notes of the source that are not given here.

Columns and labels:
[1] = target: T1, nucleoside transport protein (Homo sapiens, UniProt Q99808); test: [3H]NBTI radioligand binding assay on human erythrocyte membranes; conditions: for affinity / activity in words: comparison within the series, [3H]NBTI binding
T1 construct: tissue Blood Bank, Leiden University Medical Center; host or cells: human erythrocyte membranes (ghosts) from whole human blood
T1 sequence (Q99808 1-456): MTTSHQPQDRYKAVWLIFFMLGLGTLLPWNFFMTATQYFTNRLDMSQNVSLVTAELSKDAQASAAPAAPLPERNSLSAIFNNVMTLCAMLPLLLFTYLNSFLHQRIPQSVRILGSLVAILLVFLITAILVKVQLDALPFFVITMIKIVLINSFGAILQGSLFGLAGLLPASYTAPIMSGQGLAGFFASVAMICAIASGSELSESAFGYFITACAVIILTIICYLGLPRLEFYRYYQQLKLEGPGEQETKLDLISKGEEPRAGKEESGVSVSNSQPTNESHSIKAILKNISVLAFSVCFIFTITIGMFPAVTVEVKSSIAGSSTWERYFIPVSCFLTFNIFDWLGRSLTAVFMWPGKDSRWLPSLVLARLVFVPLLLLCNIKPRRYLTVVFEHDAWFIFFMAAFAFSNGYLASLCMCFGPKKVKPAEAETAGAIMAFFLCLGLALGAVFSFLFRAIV
Procedure: All final products were tested in a radioligand binding assay.
Erythrocytes and membrane preparation. Whole human blood (Blood Bank, Leiden University Medical Center) was stirred in lysis buffer (½ v/v, 10 mM MgCl2 in 10 mM Tris HCl, pH 8.0 at 25° C.) for 1 h. After homogenization it was centrifuged for 50 min at 19,000 rpm. The supernatant was removed and the pellet was dissolved in ice-cold water and centrifuged again for 50 min. This procedure was repeated two more times. After removal of the last supernatant 25 mL of buffer (50 mM Tris HCl, pH 7.4 at 25° C.) was added to the final pink pellet. This suspension was homogenized and the ghosts were collected. Aliquots were stored at −80° C. until further use.
Saturation and displacement equilibrium NBTI binding to membranes prepared from human erythrocytes (ghosts) was determined at 25° C. based on a method previously described.

[2] = inhibition of equilibrium binding of [3H]NBTI, Table 1, read-out: Ki(nM), affinity for the nucleoside transport protein on human erythrocyte membranes
[3] = human erythrocyte membranes, [3H]NBTI 1.5 nM, 30 minutes at 25° C., Tris.HCl pH 7.4, read-out: Binding (Nucleoside Transporter (Ki))

| Ki [1, 2] [nM] | Ki [1, 3] [nM] | affinity / activity in words [1] | SMILES | other results |
| --- | --- | --- | --- | --- |
| 937 | 937 |  | O=[N+]([O-])c1ccc(CSc2ncnc3c2ncn3C2CCCO2)cc1 (stereo not drawn) [Example 14, 6-(4-Nitro-benzylsulfanyl)-9-(tetrahydro-furan-2-yl)-9H-purine] |  |
| 1200 | 1200 |  | O=[N+]([O-])c1ccc(CSc2ncnc3c2ncn3C2CCCCO2)cc1 (stereo not drawn) [Example 15, 6-(4-Nitro-benzylsulfanyl)-9-(tetrahydro-pyran-2-yl)-9H-purine] |  |
| 488 | 488 | did not improve the binding affinity | O=[N+]([O-])c1ccc(CSc2ncnc3c2ncn3CCCCOC2CCCCO2)cc1 (stereo not drawn) [Example 16, 6-(4-Nitro-benzylsulfanyl)-9-[4-(tetrahydro-pyran-2-yloxy)-butyl]-9H-purine] |  |
| 1140 | 1140 |  | O=[N+]([O-])c1ccc(CSc2ncnc3c2ncn3CCCCO)cc1 [Example 17, 4-[6-(4-Nitro-benzylsulfanyl)-purin-9-yl]-butan-1-ol] |  |
| 736 | 736 |  | O=[N+]([O-])c1ccc(CSc2ncnc3c2ncn3C2CCCC2)cc1 [Example 18, 9-Cyclopentyl-6-(4-nitro-benzylsulfanyl)-9H-purine] |  |
| 238 | 238 |  | CCCCn1cnc2c(SCc3ccc([N+](=O)[O-])cc3)ncnc21 [Example 19, 9-Butyl-6-(4-nitro-benzylsulfanyl)-9H-purine] |  |
| 5600 | 5600 |  | CCCCn1cnc2c(SCc3cccc4nonc34)ncnc21 [Example 20, 6-(Benzo[1,2,5]oxadiazol-4-ylmethylsulfanyl)-9-butyl-9H-purine] |  |
| 3100 | 3100 |  | CCCCn1cnc2c(SCc3ccc4nscc4c3)ncnc21 [Example 21, 6-(Benzo[c]isothiazol-5-ylmethylsulfanyl)-9-butyl-9H-purine] |  |
| 682 | 682 |  | CCCCn1cnc2c(SCc3ccc4nsc(Br)c4c3)ncnc21 [Example 22, 6-(3-Bromo-benzo[c]isothiazol-5-ylmethylsulfanyl)-9-butyl-9H-purine] |  |
|  | 130 |  | O=[N+]([O-])c1ccc(CSc2ncnc3c2ncn3CCCO)cc1 [Example 25, 3-[6-(4-Nitro-benzylsulfanyl)-purin-9-yl]-propan-1-ol] |  |
|  | 135 |  | O=[N+]([O-])c1ccc(CSc2ncnc3c2ncn3Cc2ccccc2)cc1 [Example 26, 9-Benzyl-6-(4-nitro-benzylsulfanyl)-9H-purine] | melting point: 139 °C |
|  |  | higher affinity | O=[N+]([O-])c1ccc(CSc2ncnc3c2ncn3CCCCOC2CCCCO2)cc1 (stereo not drawn) [Example 46] |  |

More lines, now with the values behind:

| SMILES | Ki [1, 2] [nM] | Ki [1, 3] [nM] | affinity / activity in words [1] | other results |
| --- | --- | --- | --- | --- |
| OC[C@H]1O[C@@H](n2cnc3c(SCc4cc(Cl)cc5nonc45)ncnc32)[C@H](O)[C@@H]1O [Compound 16] | 25 |  |  |  |
| OCC1OC(n2cnc3c(SCc4ccc5nsc(Br)c5c4)ncnc32)C(O)C1O (stereo not drawn) [Example 2, 2-[6-(3-Bromo-benzo[c]isothiazol-5-ylmethylsulfanyl)-purin-9-yl]-5-hydroxymethyl-tetrahydro-furan-3,4-diol] | 42 |  |  |  |
| OCC1OC(n2cnc3c(SCc4ccc5nonc5c4)ncnc32)C(O)C1O (stereo not drawn) [Example 3, 2-[6-(Benzo[1,2,5]oxadiazol-5-ylmethylsulfanyl)-purin-9-yl]-5-hydroxymethyl-tetrahydro-furan-3,4-diol] | 1.5 |  |  |  |
| OCC1OC(n2cnc3c(SCc4cccc5nonc45)ncnc32)C(O)C1O (stereo not drawn) [Example 4] | 9.7 |  |  |  |
| OCC1OC(n2cnc3c(SCc4cccc5conc45)ncnc32)C(O)C1O (stereo not drawn) [Example 7, 2-[6-(Benzo[c]isoxazol-7-ylmethylsulfanyl)-purin-9-yl]-5-hydroxy methyl-tetrahydro-furan-3,4-diol] | 666 |  |  |  |
| OCC1OC(n2cnc3c(SCc4ccc5nsc(Br)c5c4)ncnc32)C(O)C1O (stereo not drawn) [Example 10, 2-[6-(3-Bromo-benzo[c]isothiazol-5-ylmethylsulfanyl)-purin-9-yl]-5-hydroxymethyl-tetra hydro-furan-3,4-diol] |  | 42 |  |  |
| OCC1OC(n2cnc3c(SCc4ccc5nc[nH]c5c4)ncnc32)C(O)C1O (stereo not drawn) [Example 11, 2-[6-(3H-Benzoimidazol-5-ylmethylsulfanyl)-purin-9-yl]-5-hydroxymethyl-tetra hydro-furan-3,4-diol] | 191 | 191 |  |  |
| OCC1OC(n2cnc3c(SCc4cccc5nc[nH]c45)ncnc32)C(O)C1O (stereo not drawn) [Example 12, 2-[6-(3H-Benzoimidazol-4-ylmethylsulfanyl)-purin-9-yl]-5-hydroxymethyl-tetrahydro-furan-3,4-diol] |  |  |  | Percentage of displacement at concentration of 10 μM ([1]; 10 μM, [3H]NBTI, human erythrocyte membranes): 42%*; Binding (Nucleoside Transporter), percentage at 10 μM ([1]; 10 μM, human erythrocyte membranes, [3H]NBTI): 42% |
| OCC1OC(n2cnc3c(SCc4ccccc4)cc(Cl)nc32)C(O)C1O (stereo not drawn) [Example 23, 2-(7-Benzylsulfanyl-5-chloro-imidazo[4,5-b]pyridin-3-yl)-5-hydroxymethyl-tetrahydro-furan-3,4-diol] | 670 | 670 | decrease in affinity |  |
| O=[N+]([O-])c1ccc(CSc2cc(Cl)nc3c2ncn3C2OC(CO)C(O)C2O)cc1 (stereo not drawn) [Example 24, 2-[5-Chloro-7-(4-nitro-benzylsulfanyl)-imidazo[4,5-b]pyridin-3-yl]-5-hydroxymethyl-tetrahydro-furan-3,4-diol] | 47 | 47 | decrease in affinity | increase of affinity relative to 60 ([1]; introduction of a nitro group): approx. tenfold |
| OCC1OC(n2cnc3c(SCCc4ccccc4)ncnc32)C(O)C1O (stereo not drawn) [Example 27, 2-Hydroxymethyl-5-(6-phenethylsulfanyl-purin-9-yl)-tetrahydro-furan-3,4-diol] |  | 12 |  |  |
| OCC1OC(n2cnc3c(SCc4ccc5nsc(Br)c5c4)ncnc32)C(O)C1O (stereo not drawn) [Example 31] |  |  |  | affinity gain ([1]; bromination of 28 to yield 31): 2.6 fold; Ki ([1]; human erythrocyte membranes, [3H]NBTI, read-out: Ki): 42 nM |
| OCC1OC(n2cnc3c(SCc4ccc5nc[nH]c5c4)ncnc32)C(O)C1O (stereo not drawn) [Example 37] |  |  | negative effect on affinity |  |
| OCC1OC(n2cnc3c(SCc4cccc5nc[nH]c45)ncnc32)C(O)C1O (stereo not drawn) [Example 38] |  |  | negative effect on affinity; also recorded: reduced affinity when compared to their counterparts |  |
| O=[N+]([O-])c1ccc(CSc2ncnc3c2ncn3C2CCCO2)cc1 (stereo not drawn) [Example 43] |  |  | decrease in activity compared to compound 53 |  |
| O=[N+]([O-])c1ccc(CSc2ncnc3c2ncn3C2CCCCO2)cc1 (stereo not drawn) [Example 44] |  |  | decrease in activity compared to compound 53 |  |
| O=[N+]([O-])c1ccc(CSc2ncnc3c2ncn3C2CCCC2)cc1 [Example 48] |  |  | decrease in activity compared to a simple n-butyl substituent |  |
